Source: article PMC5474949 (Journal of medicinal chemistry, 2016)
Entries after “also recorded” stand apart in the source; their conditions may differ.

Legend:
MDCK-mdr1 cells = experiment: MDCK-mdr1 permeability assay; assay type: in vitro ADME, canine; settings: 10 μM apical, 1 h, 37 °C, pH 7.4
hCB1R = hCB1R (Homo sapiens, UniProt P21554); experiment: CB1R radioligand displacement binding assay; settings: for Ki: read-out: Ki (nM) hCB1R vs CP55,940, [3H]-CP55940 displacement, Cheng–Prusoff
central CB1Rs = experiment: Tetrad CNS side effect tests; assay type: in vivo, rat; settings: naïve rats; for CNS side effects in catalepsy, motor incoordination, hypothermia assays: oral, up to 10 mg/kg; for CNS side effects in catalepsy, rotarod, hypothermia assays: ip, 0.3 mg/kg and 3-fold higher doses
[1] = tested on: acute nociception in naïve rats; experiment: Tail-flick test; assay type: in vivo, rat
[2] = tested on: neuropathy induced by unilateral sciatic nerve entrapment (SNE); experiment: SNE-induced mechanical allodynia; assay type: in vivo, rat; settings: SNE rats
[3] = Pharmacokinetics: plasma, brain and CSF levels; settings: rat, 0.3 mg/kg ip, ~75 min
[4] = tested on: antiallodynic effect of 2-5u in the SNE neuropathy; experiment: Pretreatment with CB1R/CB2R blockers before 2-5u in SNE rats; assay type: in vivo, rat; settings: blocker (2 and 3: 3 mg/kg ip) 30 min before 2-5u 0.6 mg/kg

Chain of hCB1R (P21554 whole entry): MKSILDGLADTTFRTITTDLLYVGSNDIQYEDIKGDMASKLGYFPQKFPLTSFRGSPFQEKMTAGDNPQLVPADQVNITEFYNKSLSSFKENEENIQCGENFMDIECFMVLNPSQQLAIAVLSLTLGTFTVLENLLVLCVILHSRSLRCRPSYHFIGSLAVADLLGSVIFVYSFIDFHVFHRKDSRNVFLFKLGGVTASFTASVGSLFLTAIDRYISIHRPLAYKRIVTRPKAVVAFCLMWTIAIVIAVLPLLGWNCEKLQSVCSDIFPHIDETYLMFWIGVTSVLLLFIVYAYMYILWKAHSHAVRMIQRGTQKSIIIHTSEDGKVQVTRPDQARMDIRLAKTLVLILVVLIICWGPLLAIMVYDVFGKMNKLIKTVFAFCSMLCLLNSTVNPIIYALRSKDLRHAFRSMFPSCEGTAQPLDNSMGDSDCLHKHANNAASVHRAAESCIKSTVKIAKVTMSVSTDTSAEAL

CCCCCn1cc(C(=O)c2cccc3ccccc23)c2cccc(F)c21 [1-4k, 7-Fluoro-3-[(naphthalen-1-yl)carbonyl]-1-pentyl-1H-indole]
MDCK B/A ratio (basolateral:apical) (MDCK-mdr1 cells): 0.000

N-(3-Carboxybutyl)-3-(1-naphthoyl)-1H-indole [1-4g]
Ki (hCB1R): > 10000 nM

CCCCCn1cc(C(=O)c2cccc3ccccc23)c2c(F)cccc21 [1-4h, 4-Fluoro-3-[(naphthalen-1-yl)carbonyl]-1-pentyl-1H-indole]
MDCK B/A ratio (basolateral:apical) (MDCK-mdr1 cells): 0.000

CCCCCn1cc(C(=O)c2cccc3ccccc23)c2ccc(F)cc21 [1-4j, 6-Fluoro-3-[(naphthalen-1-yl)carbonyl]-1-pentyl-1H-indole]
MDCK B/A ratio (basolateral:apical) (MDCK-mdr1 cells): 0.000

CCCCCn1cc(C(=O)c2cccc3ccccc23)c2cc(F)ccc21 [1-4i, 5-Fluoro-3-[(naphthalen-1-yl)carbonyl]-1-pentyl-1H-indole]
MDCK B/A ratio (basolateral:apical) (MDCK-mdr1 cells): 0.000

CCc1ccc(/C=C2\C=C(CCN3CCOCC3)c3ccccc32)c2ccccc12 [2-5t, 4-{2-[(1E)-1-[(4-Ethylnaphthalen-1-yl)methylidene]-1H-indenyl]-ethyl}morpholine]
MDCK B/A ratio (basolateral:apical) (MDCK-mdr1 cells): 0.000
CNS side effects in catalepsy, motor incoordination, hypothermia assays (central CB1Rs): relative lack of side effects in the catalepsy, motor incoordination, and hypothermia assays
effect in tail-flick assay ([1]; oral): small effects in the tail-flick assay

C1=C(CCN2CCOCC2)c2ccccc2/C1=C/c1cccc2ccccc12 [2-5a, 4-{2-[(1E)-1-(Naphthalen-1-ylmethylidene)-1H-inden-3-yl]ethyl}-morpholine]
suppression of SNE-induced mechanical allodynia ([2]; 0.3 mg/kg ip, 0.3 mg/kg): much smaller effect; also recorded: considerably smaller increases in thresholds than 2-5u or 2-5j

COC(=O)c1ccc(C(=O)c2cn(CCN3CCOCC3)c3ccccc23)c2ccccc12 [1-4o]
MDCK B/A ratio (basolateral:apical) (MDCK-mdr1 cells): 1.02

CCCCCn1cc(C(=O)c2ccc(C(=O)OC)c3ccccc23)c2ccccc21 [1-4a, Methyl 4-[(1-Pentyl-1H-indol-3-yl)carbonyl]naphthalene-1-carboxylate]
MDCK B/A ratio (basolateral:apical) (MDCK-mdr1 cells): 0.00

CCCCCCC(C)(C)c1cc(O)c2c(c1)OC(C)(C)[C@@H]1CC=C(CO)C[C@@H]21 [compound 1, reference compound]
CNS side effects in catalepsy (ring), core temperature, rotarod tests (central CB1Rs; 0.01 mg/kg ip, positive control, 0.01 mg/kg): strong CNS side effects; also recorded: profound CNS side effects

COc1ccc(/C=C2\C=C(CCN3CCOCC3)c3ccccc32)c2ccccc12 [2-5j, 4-{2-[(1E)-1-[(4-Methoxynaphthalen-1-yl)methylidene]-1H-inden-3-yl]ethyl}morpholine]
suppression of SNE-induced mechanical allodynia ([2]; 0.3 mg/kg ip, 0.3 mg/kg): large, reversible decreases in mechanical allodynia; also recorded: complete suppression of mechanical allodynia symptoms
MDCK B/A ratio (basolateral:apical) (MDCK-mdr1 cells): 0.000
CNS side effects in catalepsy, rotarod, hypothermia assays (central CB1Rs): no effect in the assays of CNS CB1R activation
CNS side effects in catalepsy, motor incoordination, hypothermia assays (central CB1Rs): relative lack of side effects in the catalepsy, motor incoordination, and hypothermia assays
effect in tail-flick assay ([1]; oral): small effects in the tail-flick assay

N-(3-Ethoxycarbonylbutyl)-3-(1-naphthoyl)-1H-indole [1-4e]
Ki (hCB1R): 1470 nM

(1E)-3-hexyl-1-(2-phenylethylidene)-1H-indene [2-7c]
Ki (hCB1R): 4410 nM
loss of hCB1R affinity versus 2-7a (hCB1R; versus 2-7a (pentyl)): 256 fold
loss of hCB1R affinity versus 2-7b (hCB1R; versus naphthylidene analogue 2-7b (n-hexyl)): 10 fold

CCCc1ccc(/C=C2\C=C(CCN3CCOCC3)c3ccccc32)c2ccccc12 [2-5u, 4-{2-[(1E)-1-[(4-Propylnaphthalen-1-yl)methylidene]-1H-inden-3-yl]ethyl}morpholine]
suppression of SNE-induced mechanical allodynia ([2]; 0.3 mg/kg ip, 0.3 mg/kg): large, reversible decreases in mechanical allodynia; also recorded: ipsilateral thresholds are increased to levels of predrug contralateral thresholds; also recorded: complete suppression of mechanical allodynia symptoms
suppression of SNE-induced mechanical allodynia ([2]; 3 mg/kg oral, 3 mg/kg): reversibly suppresses SNE neuropathy symptoms; also recorded: effective in suppressing neuropathy symptoms after oral administration; also recorded: complete suppression of allodynia symptoms at peak effect
MDCK B/A ratio (basolateral:apical) (MDCK-mdr1 cells): 0.000
CNS side effects in catalepsy, rotarod, hypothermia assays (central CB1Rs; 0.3 mg/kg): lack effects in the catalepsy, rotarod, or hypothermia assays; also recorded: no effect in the assays of CNS CB1R activation
CNS side effects in catalepsy, motor incoordination, hypothermia assays (central CB1Rs): relative lack of side effects in the catalepsy, motor incoordination, and hypothermia assays; also recorded: no significant effect on central CB1Rs
effect in tail-flick assay ([1]; ip (2-5u 0.3 mg/kg)): small effect in the tail-flick assay; also recorded: small analgesic effect; also recorded: small effects on acute nociception
effect in tail-flick assay ([1]; oral): small effects in the tail-flick assay
CNS penetration (plasma, brain, CSF samples) [3]: minimal penetration of 2-5u into the CNS

CCCCCC1=C/C(=C\c2cccc3ccccc23)c2ccccc21 [2-7a, 1-{[(1E)-3-pentyl-1H-inden-1-ylidene]methyl}naphthalene, reference compound]
MDCK B/A ratio (basolateral:apical) (MDCK-mdr1 cells): 0.04

Cc1c(C(=O)NN2CCCCC2)nn(-c2ccc(Cl)cc2Cl)c1-c1ccc(Cl)cc1 [compound 2]
effect of pretreatment on antiallodynic effect of 2-5u [4]: completely blocked the antiallodynic effect of 2-5u; also recorded: completely blocks the response to 2-5u
